Read-outs that look alike come from different tables or passages of the source.
Tests used:
[1] = molecular target: biotinylated Avi-POLθ[2-894] (Homo sapiens (Human), UniProt O75417); assay: POLθ ATPase assay (ADP-Glo); conditions: n=2, read-out: Biochemical ATPase ADPGlo IC50
DLD1 BRCA2 (−/−) cells = assay: 7-day cell viability assay (CellTiter-Glo), DLD1 BRCA2 (−/−); assay type: cell-based, human; conditions: Homo sapiens, DLD-1, 168 h, n=2, read-out: Viability IC50 (uM) DLD1 BRCA2 null
Procedure, shortened: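 7-day growth assay in DLD1 cells with or without BRCA2; seeding densities chosen to keep log-linear growth. Compound: 10 uM top, 3-fold, 9 points. Endpoint: CTG ATP luminescence at RT.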

DLD1 WT cells = assay: 7-day cell viability assay (CellTiter-Glo), DLD1 parental (WT); assay type: cell-based, human; conditions: Homo sapiens, DLD-1, 168 h, n=2

Chain of biotinylated Avi-POLθ[2-894] (O75417 2-894): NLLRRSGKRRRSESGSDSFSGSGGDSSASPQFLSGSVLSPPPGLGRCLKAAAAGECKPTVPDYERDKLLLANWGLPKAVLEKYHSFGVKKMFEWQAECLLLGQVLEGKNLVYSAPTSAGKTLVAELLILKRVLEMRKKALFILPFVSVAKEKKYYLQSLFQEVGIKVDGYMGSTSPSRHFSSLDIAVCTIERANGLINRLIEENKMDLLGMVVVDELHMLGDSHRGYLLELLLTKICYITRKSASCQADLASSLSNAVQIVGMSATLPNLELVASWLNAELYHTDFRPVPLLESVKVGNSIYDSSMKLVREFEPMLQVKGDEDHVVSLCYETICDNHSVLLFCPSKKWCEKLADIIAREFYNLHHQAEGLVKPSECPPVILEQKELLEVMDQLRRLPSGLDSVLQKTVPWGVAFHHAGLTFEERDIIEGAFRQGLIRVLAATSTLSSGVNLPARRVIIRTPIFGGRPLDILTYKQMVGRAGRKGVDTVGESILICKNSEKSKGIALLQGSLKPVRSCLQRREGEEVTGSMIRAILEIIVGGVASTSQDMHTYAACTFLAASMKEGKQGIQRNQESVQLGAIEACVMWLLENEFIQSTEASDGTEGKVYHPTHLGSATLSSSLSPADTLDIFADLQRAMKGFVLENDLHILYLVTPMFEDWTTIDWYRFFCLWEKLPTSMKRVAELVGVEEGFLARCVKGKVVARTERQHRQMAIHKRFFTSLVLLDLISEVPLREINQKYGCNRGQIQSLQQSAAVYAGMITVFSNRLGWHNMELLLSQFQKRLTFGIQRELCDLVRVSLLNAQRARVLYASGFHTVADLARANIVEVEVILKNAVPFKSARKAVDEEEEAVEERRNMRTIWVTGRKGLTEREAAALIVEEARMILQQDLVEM

SMILES | IC50 [1] | IC50 (DLD1 BRCA2 (−/−) cells; 7-day viability) | IC50 (DLD1 WT cells; 7-day viability) | IC50 ([1]; POLθ ATPase, ADP-Glo) | IC50 (DLD1 BRCA2 (−/−) cells; 7-day CellTiter-Glo) | IC50 (DLD1 WT cells; 7-day CellTiter-Glo)
COc1cnc(Cl)cc1-c1cc(C)ncc1C(=O)Nc1nc2c(s1)CC(Nc1ccccc1)CC2 (stereo not drawn) | 1 to 15 nM | 0.1 to 0.25 µM | ≥ 10 µM | – | – | –
COc1ccc(C#N)cc1-c1cc(C)ncc1C(=O)Nc1nc2c(s1)CN(S(=O)(=O)NC1CC1)C2 | 1 to 15 nM | ≥ 2 µM | ≥ 10 µM | – | – | –
COc1ccc(C#N)cc1-c1cc(C)ncc1C(=O)Nc1nc2c(s1)CN(C(=O)C1CC(CC(F)F)C1)C2 (stereo not drawn) | 1 to 15 nM | 0.5 to 2 µM | ≥ 10 µM | – | – | –
COc1ccc(C#N)cc1-c1cc(C)ncc1C(=O)Nc1nc2c(s1)CN(C(=O)[C@H]1C[C@@H](C#N)C1)C2 | 1 to 15 nM | ≥ 2 µM | ≥ 10 µM | – | – | –
COc1ccc(C#N)cc1-c1cc(C)ncc1C(=O)Nc1nc2c(s1)CN(C(=O)C1CCCC1)C2 | 1 to 15 nM | 0.5 to 2 µM | ≥ 10 µM | – | – | –
COc1ccc(C#N)cc1-c1cc(C)ncc1C(=O)Nc1nc2c(s1)CN(C(=O)[C@H]1C[C@@H](OC)C1)C2 | 1 to 15 nM | 0.5 to 2 µM | ≥ 10 µM | – | – | –
COc1ccc(C#N)cc1-c1cc(C)ncc1C(=O)Nc1nc2c(s1)CN(S(=O)(=O)N1CCOCC1)C2 | 1 to 15 nM | ≥ 2 µM | ≥ 10 µM | – | – | –
COc1ccc(C#N)cc1-c1cc(C)ncc1C(=O)Nc1nc2c(s1)CN(S(=O)(=O)N1CCCC1)C2 | 1 to 15 nM | 0.5 to 2 µM | ≥ 10 µM | – | – | –
COc1ccc(C#N)cc1-c1cc(C)ncc1C(=O)Nc1nc2c(s1)CN(C(=O)c1ccncc1)C2 | 1 to 15 nM | ≥ 2 µM | ≥ 10 µM | – | – | –
COc1ccc(C#N)cc1-c1cc(C)ncc1C(=O)Nc1nc2c(s1)CN(S(=O)(=O)N1CCCCC1)C2 | 1 to 15 nM | 0.5 to 2 µM | ≥ 10 µM | – | – | –
COc1ccc(C#N)cc1-c1cc(C)ncc1C(=O)Nc1nc2c(s1)CN(C(=O)c1ccncc1C)C2 | 1 to 15 nM | ≥ 2 µM | ≥ 10 µM | – | – | –
COc1ccc(C#N)cc1-c1cc(C)ncc1C(=O)Nc1nc2c(s1)CN(S(=O)(=O)NCC(F)(F)F)C2 | 1 to 15 nM | ≥ 2 µM | ≥ 10 µM | – | – | –
COc1ccc(C#N)cc1-c1cc(C)ncc1C(=O)Nc1nc2c(s1)CN(C(=O)C1CCCCC1)C2 | 1 to 15 nM | 0.5 to 2 µM | ≥ 10 µM | – | – | –
COc1ccc(C#N)cc1-c1cc(C)ncc1C(=O)Nc1nc2c(s1)CN(S(=O)(=O)C1CC1)C2 | 15 to 50 nM | ≥ 2 µM | ≥ 10 µM | – | – | –
COc1ccc(C#N)cc1-c1cc(C)ncc1C(=O)Nc1nc2c(s1)CN(S(=O)(=O)NC(C)(C)C)C2 | 1 to 15 nM | ≥ 2 µM | ≥ 10 µM | – | – | –
COc1ccc(C#N)cc1-c1cc(C)ncc1C(=O)Nc1nc2c(s1)CN(C(=O)c1ncccc1C)C2 | 1 to 15 nM | 0.5 to 2 µM | ≥ 10 µM | – | – | –
COc1ccc(C#N)cc1-c1cc(C)ncc1C(=O)Nc1nc2c(s1)CN(S(=O)(=O)NCC(C)C)C2 | 1 to 15 nM | 0.5 to 2 µM | ≥ 10 µM | – | – | –
COc1ccc(C#N)cc1-c1cc(C)ncc1C(=O)Nc1nc2c(s1)CC(Nc1ccccc1)CC2 (stereo not drawn) | 1 to 15 nM | 0.1 to 0.25 µM | ≥ 10 µM | – | – | –
COc1ccc(C#N)cc1-c1cc(C)ncc1C(=O)Nc1nc2c(s1)CN(C(=O)c1cccc(C)n1)C2 | 1 to 15 nM | 0.5 to 2 µM | ≥ 10 µM | – | – | –
COc1ccccc1-c1cc(C)ncc1C(=O)Nc1nc2c(s1)CN(C(=O)C1CC1)C2 | 150 to 900 nM | ≥ 2 µM | ≥ 10 µM | – | – | –
COc1ccccc1-c1cc(C)ncc1C(=O)Nc1nc2c(s1)CN(C(=O)C1CC1)CC2 | ≥ 900 nM | ≥ 2 µM | 0.5 to 2 µM | – | – | –
COc1ccccc1-c1cc(C)ncc1C(=O)Nc1nc2c(s1)CN(c1ccc(Cl)cc1)CC2 | ≥ 900 nM | ≥ 2 µM | ≥ 10 µM | – | – | –
COc1ccccc1-c1cc(C)ncc1C(=O)Nc1nc2c(s1)CN(CC1CCCCC1)CC2 | ≥ 900 nM | ≥ 2 µM | ≥ 10 µM | – | – | –
COc1ccccc1-c1cc(C)ncc1C(=O)Nc1nc2c(s1)CN(C(=O)c1ccccc1)CC2 | ≥ 900 nM | 0.5 to 2 µM | 0.5 to 2 µM | – | – | –
COc1ccccc1-c1cc(C)ncc1C(=O)Nc1nc2c(s1)CN(Cc1ccccc1)CC2 | ≥ 900 nM | 0.5 to 2 µM | 0.5 to 2 µM | – | – | –
COc1ccccc1-c1cc(C)ncc1C(=O)Nc1nc2c(s1)C(=O)NCC2 | ≥ 900 nM | ≥ 2 µM | ≥ 10 µM | – | – | –
COc1ccccc1-c1cc(C)ncc1C(=O)Nc1nc2c(s1)CNCC2 | ≥ 900 nM | ≥ 2 µM | ≥ 10 µM | – | – | –
COc1cnc(Cl)cc1-c1cc(C)ncc1C(=O)Nc1nc2c(s1)CN(C(=O)c1cnc(C(F)(F)F)cn1)C2 | – | – | – | 1 to 15 nM | 0.001 to 0.1 µM | ≥ 10 µM

SMILES | IC50 [1] | IC50 (DLD1 BRCA2 (−/−) cells; 7-day viability) | IC50 (DLD1 WT cells; 7-day viability) | IC50 ([1]; POLθ ATPase, ADP-Glo) | IC50 (DLD1 BRCA2 (−/−) cells; 7-day CellTiter-Glo) | IC50 (DLD1 WT cells; 7-day CellTiter-Glo)
COc1cnc(Cl)cc1-c1cc(C)ncc1C(=O)Nc1nc2c(s1)CN(C(=O)c1ccc(F)c(C(F)F)c1)C2 | – | – | – | 1 to 15 nM | 0.001 to 0.1 µM | 5 to 10 µM
COc1cnc(Cl)cc1-c1cc(C)ncc1C(=O)Nc1nc2c(s1)CN(C(=O)c1cccc(Cl)c1OC)C2 | – | – | – | 1 to 15 nM | 0.001 to 0.1 µM | 5 to 10 µM
COc1cnc(Cl)cc1-c1cc(C)ncc1C(=O)Nc1nc2c(s1)CN(C(=O)c1ccc(C(F)(F)F)c(Cl)n1)C2 | – | – | – | 1 to 15 nM | 0.001 to 0.1 µM | ≥ 10 µM
COc1cnc(Cl)cc1-c1cc(C)ncc1C(=O)Nc1nc2c(s1)CN(C(=O)c1ncc(Br)cc1OC)C2 | – | – | – | 1 to 15 nM | 0.1 to 0.25 µM | ≥ 10 µM
COc1cnc(Cl)cc1-c1cc(C)ncc1C(=O)Nc1nc2c(s1)CN(C(=O)c1ccc(C(F)F)cc1Cl)C2 | – | – | – | 1 to 15 nM | 0.001 to 0.1 µM | ≥ 10 µM
COc1cnc(Cl)cc1-c1cc(C)ncc1C(=O)Nc1nc2c(s1)CN(C(=O)c1nc(C(F)F)ccc1Cl)C2 | – | – | – | 1 to 15 nM | 0.001 to 0.1 µM | ≥ 10 µM
COc1ccc(Cl)c(C(=O)N2Cc3nc(NC(=O)c4cnc(C)cc4-c4cc(Cl)ncc4OC)sc3C2)n1 | – | – | – | 1 to 15 nM | 0.001 to 0.1 µM | ≥ 10 µM
COc1cnc(Cl)cc1-c1cc(C)ncc1C(=O)Nc1nc2c(s1)CN(C(=O)c1nccc(Cl)c1C)C2 | – | – | – | 1 to 15 nM | 0.001 to 0.1 µM | ≥ 10 µM
COc1cnc(Cl)cc1-c1cc(C)ncc1C(=O)Nc1nc2c(s1)CN(C(=O)c1ccc(F)c(C(F)F)n1)C2 | – | – | – | 1 to 15 nM | 0.001 to 0.1 µM | ≥ 10 µM
COc1cnc(Cl)cc1-c1cc(C)ncc1C(=O)Nc1nc2c(s1)CN(C(=O)c1ccc(C(F)F)nc1Cl)C2 | – | – | – | 1 to 15 nM | 0.001 to 0.1 µM | ≥ 10 µM
COc1cnc(Cl)cc1-c1cc(C)ncc1C(=O)Nc1nc2c(s1)CN(C(=O)c1nc3ccccc3o1)C2 | – | – | – | 1 to 15 nM | 0.001 to 0.1 µM | ≥ 10 µM
COc1cccc(C(=O)N2Cc3nc(NC(=O)c4cnc(C)cc4-c4cc(Cl)ncc4OC)sc3C2)n1 | – | – | – | 1 to 15 nM | 0.001 to 0.1 µM | 2 to 5 µM
COc1ccc(C(=O)N2Cc3nc(NC(=O)c4cnc(C)cc4-c4cc(Cl)ncc4OC)sc3C2)c(Cl)n1 | – | – | – | 1 to 15 nM | 0.001 to 0.1 µM | ≥ 10 µM
COc1ccc(C#N)cc1-c1cc(C)ncc1C(=O)Nc1nc2c(s1)CN(C(=O)c1cccc(C(F)F)c1)C2 | – | – | – | 1 to 15 nM | 0.1 to 0.25 µM | ≥ 10 µM
COc1cnc(Cl)cc1-c1cc(C)ncc1C(=O)Nc1nc2c(s1)CN(C(=O)c1ccnc(C)n1)C2 | – | – | – | 1 to 15 nM | 0.001 to 0.1 µM | 5 to 10 µM
COc1ccc(C#N)cc1-c1cc(C)ncc1C(=O)Nc1nc2c(s1)CN(C(=O)c1ccc(C(F)F)c(F)c1)C2 | – | – | – | 1 to 15 nM | 0.001 to 0.1 µM | ≥ 10 µM
COc1cnc(Cl)cc1-c1cc(C)ncc1C(=O)Nc1nc2c(s1)CN(C(=O)c1cnc(C)cn1)C2 | – | – | – | 1 to 15 nM | 0.001 to 0.1 µM | 2 to 5 µM
COc1cc(C(=O)N2Cc3nc(NC(=O)c4cnc(C)cc4-c4cc(C#N)ccc4OC)sc3C2)ccc1Cl | – | – | – | 1 to 15 nM | 0.001 to 0.1 µM | 5 to 10 µM
COc1cc(Cl)nc(C(=O)N2Cc3nc(NC(=O)c4cnc(C)cc4-c4cc(Cl)ncc4OC)sc3C2)c1 | – | – | – | 1 to 15 nM | 0.001 to 0.1 µM | ≥ 10 µM
COc1ccc(C#N)cc1-c1cc(C)ncc1C(=O)Nc1nc2c(s1)CN(C(=O)c1cccc(OC)c1Cl)C2 | – | – | – | 1 to 15 nM | 0.001 to 0.1 µM | ≥ 10 µM
COc1nccc(C(=O)N2Cc3nc(NC(=O)c4cnc(C)cc4-c4cc(Cl)ncc4OC)sc3C2)n1 | – | – | – | 1 to 15 nM | 0.001 to 0.1 µM | ≥ 10 µM
COc1cnc(Cl)cc1-c1cc(C)ncc1C(=O)Nc1nc2c(s1)CN(C(=O)c1cnc(C(F)F)nc1)C2 | – | – | – | 1 to 15 nM | 0.001 to 0.1 µM | ≥ 10 µM
COc1cc(Cl)cc(C(=O)N2Cc3nc(NC(=O)c4cnc(C)cc4-c4cc(Cl)ncc4OC)sc3C2)n1 | – | – | – | 1 to 15 nM | 0.001 to 0.1 µM | ≥ 10 µM
COc1cnc(Cl)cc1-c1cc(C)ncc1C(=O)Nc1nc2c(s1)CN(C(=O)c1nccn3nccc13)C2 | – | – | – | 1 to 15 nM | 0.001 to 0.1 µM | ≥ 10 µM
COc1cnc(Cl)cc1-c1cc(C)ncc1C(=O)Nc1nc2c(s1)CN(C(=O)c1ccc(OC)c(C(F)F)n1)C2 | – | – | – | 1 to 15 nM | 0.001 to 0.1 µM | ≥ 10 µM
COc1nnc(Cl)cc1-c1cc(C)ncc1C(=O)Nc1nc2c(s1)CN(C(=O)c1ccc(C(F)F)cn1)C2 | – | – | – | 1 to 15 nM | 0.001 to 0.1 µM | ≥ 10 µM
COc1cnc(Cl)cc1-c1cc(C)ncc1C(=O)Nc1nc2c(s1)CN(C(=O)c1ccc(OC(F)F)nc1Cl)C2 | – | – | – | 1 to 15 nM | 0.001 to 0.1 µM | ≥ 10 µM

Reference: patent US20250230171A1 (MOMA Therapeutics, Inc., priority 2023, published 2025)
